The source made the active and inactive calls. The rule behind the calls is not given here.
Tests used:
Type in all cases: functional, organism-based
[1] = test system: Nicotiana tabacum; assay: Phytotoxicity against Nicotiana tabacum at 1000 ppm after 7 days
[2] = test system: Nicotiana tabacum; assay: Phytotoxicity against Nicotiana tabacum at 250 ppm after 7 days
[3] = test system: Nicotiana tabacum; assay: Phytotoxicity against Nicotiana tabacum at 500 ppm after 7 days

| SMILES | Activity [3] | further results |
| --- | --- | --- |
| CO[C@H]1O[C@H](OC)[C@@]2(C)CC(C)(C)[C@@H]3[C@@H](OC(C)=O)C[C@@H](C)[C@H]1[C@@]32O |  | Activity [1]: Active |
| CC1(C)C[C@](C)(CO)c2c1ccc(CO)c2CO |  | Activity [2]: Active |
| C=CC1=C(/C(=C\C)CO)[C@@](C)(CO)CC1(C)C | Active |  |
| COC(=O)[C@H]1[C@H](C)C[C@H](OC(C)=O)[C@H]2C(C)(C)C[C@](C)(CO)[C@@]12O | Active |  |
| Cc1ccc2c(c1CO)[C@@](C)(CO)CC2(C)C | Active |  |

From ChEMBL document CHEMBL1155672, “Secobotrytriendiol and related sesquiterpenoids: new phytotoxic metabolites from Botrytis cinerea” (J Nat Prod, 2000)
